Columns and labels:
[1] = molecular target: T1, PPARδ (Homo sapiens, UniProt Q03181); conditions: Leesnitzer et al.; cited from earlier work
T1 sequence (Q03181 1-441): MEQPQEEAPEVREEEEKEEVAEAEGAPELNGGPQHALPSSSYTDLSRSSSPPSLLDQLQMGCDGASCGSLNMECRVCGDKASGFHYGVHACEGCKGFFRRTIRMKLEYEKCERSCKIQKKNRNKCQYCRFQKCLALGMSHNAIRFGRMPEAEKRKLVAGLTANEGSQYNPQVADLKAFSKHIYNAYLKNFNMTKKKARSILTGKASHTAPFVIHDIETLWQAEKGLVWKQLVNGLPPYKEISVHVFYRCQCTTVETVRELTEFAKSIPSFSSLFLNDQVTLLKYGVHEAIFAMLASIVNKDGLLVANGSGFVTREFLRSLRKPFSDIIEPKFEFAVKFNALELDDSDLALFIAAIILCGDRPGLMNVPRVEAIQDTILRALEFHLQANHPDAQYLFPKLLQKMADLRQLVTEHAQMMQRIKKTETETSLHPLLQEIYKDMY

[2] = molecular target: T2, PPARα (Homo sapiens, UniProt Q07869); conditions: Leesnitzer et al.; cited from earlier work
T2 sequence (Q07869 1-468): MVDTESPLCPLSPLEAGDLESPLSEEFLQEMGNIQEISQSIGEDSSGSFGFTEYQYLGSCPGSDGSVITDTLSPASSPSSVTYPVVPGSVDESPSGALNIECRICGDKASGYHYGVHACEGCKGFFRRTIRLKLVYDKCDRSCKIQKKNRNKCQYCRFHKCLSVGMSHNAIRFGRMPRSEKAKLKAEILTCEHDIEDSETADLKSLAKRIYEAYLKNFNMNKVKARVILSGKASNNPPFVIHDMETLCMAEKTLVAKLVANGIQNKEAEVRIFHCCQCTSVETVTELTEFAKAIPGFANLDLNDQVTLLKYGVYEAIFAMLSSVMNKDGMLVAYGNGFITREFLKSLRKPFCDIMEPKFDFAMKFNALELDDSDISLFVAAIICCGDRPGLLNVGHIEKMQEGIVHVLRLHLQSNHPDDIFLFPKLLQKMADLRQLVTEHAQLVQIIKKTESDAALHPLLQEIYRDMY

[3] = system: PGRN mRNA; conditions: myeloid cells, Ong et al.; cited from earlier work
[4] = system: PGRN polypeptide; experiment: PGRN polypeptide expression in HeLa cells by immunohistochemistry; type: cell-based, human; conditions: ibuprofen 2.5 μM for 24 hours, vs untreated
Protocol: Treated and untreated HeLa cells were analyzed for PGRN polypeptide expression using immunohistochemistry. […] Levels of PGRN polypeptide in cell culture supernatants and cell lysates of HeLa cells treated with various concentrations of ibuprofen were compared to corresponding PGRN polypeptide levels in HeLa cells treated with DMSO (FIG. 26).

[5] = system: GAPDH polypeptide; experiment: GAPDH polypeptide expression in treated HeLa cells, Western blot; type: cell-based, human; conditions: ibuprofen treatment
[6] = system: PGRN polypeptide; experiment: PGRN polypeptide levels in cell lysates and culture supernatants of treated M17 cells, Western blotting; type: cell-based, human; conditions: M17 cells, ibuprofen 1 to 5 μM
Protocol: Cell cultures were maintained in standard cell culture media supplemented with 5% fetal bovine serum and 100 U/mL penicillin/streptomycin (Life Technologies, Karlsruhe, Germany). Cell cultures consisted of Chinese hamster ovary (CHO) cells; human HeLa cells (HeLa); BE(2)-M17, human neuroblastoma (M17); […] The following PPAR activators were dissolved in DMSO: ciglitazone (Calbiochem, San Diego, Calif.), fenofibrate (Sigma-Aldrich, Saint Louis, Mo.), clofibrate (Calbiochem), and L165041 (Calbiochem). Cells were cultured in serum-containing media and treated for 24 hours in serum-free media with a specific PPAR agonist. Curcumin (Sigma-Aldrich) and resveratrol (Sigma-Aldrich) were dissolved in DMSO. Cells were cultured in serum-containing media and treated for 24 hours in serum-free media with curcumin or resveratrol. Antibodies that were used included a monoclonal human progranulin antibody (Zymed, South San Francisco, Calif.) directed against full length progranulin polypeptide, a mouse progranulin antibody (R&D Systems, Minneapolis, Minn.) directed against full length progranulin polypeptide, and an anti-GAPDH antibody (Sigma-Aldrich). Cell cultures were treated with increasing concentrations of the PPARα activator clofibrate or with DMSO. Levels of PGRN polypeptide in culture supernatants and in cell lysates were analyzed using Western blotting. The levels of intracellular and secreted forms of PGRN polypeptide were compared in clofibrate treated M17 cell cultures and DMSO treated M17 cell cultures (FIG. 20).

[7] = system: PGRN polypeptide; experiment: PGRN polypeptide levels in cell lysates and culture supernatants of treated HeLa cells, Western blotting; type: cell-based, human; conditions: 1.25 to 20 micromolar ibuprofen, 24 hours, vs DMSO
Protocol: Cell cultures were maintained in standard cell culture media supplemented with 5% fetal bovine serum and 100 U/mL penicillin/streptomycin (Life Technologies, Karlsruhe, Germany). Cell cultures consisted of Chinese hamster ovary (CHO) cells; human HeLa cells (HeLa); BE(2)-M17, human neuroblastoma (M17); N2A, mouse neuroblastoma; and human lymphoblasts.
The following NSAIDs were dissolved in the vehicle DMSO: ibuprofen (Biomol, Plymouth Meeting, Pa.), indomethacin (Biomol), diclofenac (Cayman Chemical, Ann Arbor, Mich.), naproxen (Cayman Chemical), and aspirin (ICN Biomedicals, Irvine, Calif.). Cells were cultured in serum-containing media and treated for 24 hours in serum-free media with a specific NSAID. NSAID toxicity was examined using a standard MTT-assay (3-(4,5-Dimethyl-2-thiazolylyl)-2,5-diphenyl-2H-tetrazolium Bromide). For cell toxicity studies, cells were treated with NSAIDS at concentrations up to 100 micromolar.
Antibodies that were used included a monoclonal human progranulin antibody (Zymed, South San Francisco, Calif.) directed against full length progranulin polypeptide, a mouse progranulin antibody (R&D Systems, Minneapolis, Minn.) directed against full length progranulin polypeptide, and an anti-GAPDH antibody (Sigma-Aldrich).
HeLa cell cultures (N=4 for all studies) were treated with various concentrations of NSAIDs, including ibuprofen, naproxen, indomethacin, meclofenamic acid, and acetylsalicylic acid for 24 hours in serum free media. Levels of PGRN polypeptide in culture supernatants and in cell lysates were analyzed using Western blotting.

[8] = system: PGRN polypeptide; experiment: PGRN polypeptide levels in treated N2A mouse neuroblastoma cells; type: cell-based; conditions: N2A cells, ibuprofen 1 to 5 μM
Protocol: Cell cultures were maintained in standard cell culture media supplemented with 5% fetal bovine serum and 100 U/mL penicillin/streptomycin (Life Technologies, Karlsruhe, Germany). Cell cultures consisted of Chinese hamster ovary (CHO) cells; human HeLa cells (HeLa); BE(2)-M17, human neuroblastoma (M17); […] The following NSAIDs were dissolved in the vehicle DMSO: ibuprofen (Biomol, Plymouth Meeting, Pa.), indomethacin (Biomol), diclofenac (Cayman Chemical, Ann Arbor, Mich.), naproxen (Cayman Chemical), and aspirin (ICN Biomedicals, Irvine, Calif.). Cells were cultured in serum-containing media and treated for 24 hours in serum-free media with a specific NSAID. […] For cell toxicity studies, cells were treated with NSAIDS at concentrations up to 100 micromolar. The following PPAR activators were dissolved in DMSO: ciglitazone (Calbiochem, San Diego, Calif.), fenofibrate (Sigma-Aldrich, Saint Louis, Mo.), clofibrate (Calbiochem), and L165041 (Calbiochem). Cells were cultured in serum-containing media and treated for 24 hours in serum-free media with a specific PPAR agonist. […]

[9] = molecular target: T3, PPARγ (Homo sapiens, UniProt P37231); conditions: highly selective agonist, commercial vendors; cited from earlier work
T3 sequence (P37231 1-505): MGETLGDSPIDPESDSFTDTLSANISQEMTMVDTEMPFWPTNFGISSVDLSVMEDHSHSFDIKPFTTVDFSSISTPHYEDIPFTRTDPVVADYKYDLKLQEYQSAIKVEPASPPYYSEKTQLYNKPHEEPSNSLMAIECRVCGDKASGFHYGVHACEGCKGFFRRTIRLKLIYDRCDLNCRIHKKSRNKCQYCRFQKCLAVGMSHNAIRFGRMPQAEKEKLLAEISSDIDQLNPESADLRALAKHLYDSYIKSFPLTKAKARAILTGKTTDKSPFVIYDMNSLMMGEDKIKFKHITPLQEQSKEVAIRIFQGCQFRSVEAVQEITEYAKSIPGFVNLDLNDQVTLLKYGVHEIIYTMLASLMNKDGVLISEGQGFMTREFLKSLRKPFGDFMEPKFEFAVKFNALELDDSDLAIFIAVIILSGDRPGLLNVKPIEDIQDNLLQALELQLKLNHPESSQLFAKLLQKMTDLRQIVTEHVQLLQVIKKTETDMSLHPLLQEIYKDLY

In the case of `O=C(Nc1ccccc1)c1cc([N+](=O)[O-])ccc1Cl` [GW9662, 2-Chloro-5-nitro-N-phenylbenzamide], the “block of PPARδ receptors” value [1] is listed as “low micromolar range” and the “block of PPARα receptors” value [2] is listed as “low nM range”.
In the case of `CC1=C(/C=C/C(C)=C/C=C/C(C)=C/C(=O)O)C(C)(C)CCC1` [all trans-retinoic acid], the “PGRN mRNA level” value [3] is listed as “upregulation of PGRN mRNA”.
With `CC(C)Cc1ccc(C(C)C(=O)O)cc1` (stereo not drawn) [ibuprofen] the “PGRN polypeptide expression by immunohistochemistry” value [4] was “increased PGRN polypeptide expression in the Golgi”, the “effect on GAPDH polypeptide expression” value [5] was “No significant effect” and the “increase in PGRN polypeptide expression” value [6] was “up to 600%”. For the same compound, the “increase in the level of intracellular PGRN polypeptide” value [7] was “approximately 150%” and the “increase in PGRN polypeptide expression” value [8] was “up to 600%”.
In the case of GW1929, the “PPARγ agonist activity range” value [9] is listed as “low nM range”.
